# Results as given in patent publication US12503484B2, “Androstane derivatives with activity as pure or predominantly pure stimulators of SERCA2a for the treatment of heart failure” (Seismic Pharmaceuticals, priority 2019, dated 2025).
# Read-outs that look alike come from different tables or passages of the source. Marks after values point to notes of the source that are not given here.
# Assays:
# SERCA2a = SERCA2a (Cavia porcellus, UniProt A0A286XD73); assay: SERCA2a ATPase activity in heart-derived SR microsomes from normal guinea-pig; type: biochemical
# Sequence of SERCA2a (A0A286XD73 1-997): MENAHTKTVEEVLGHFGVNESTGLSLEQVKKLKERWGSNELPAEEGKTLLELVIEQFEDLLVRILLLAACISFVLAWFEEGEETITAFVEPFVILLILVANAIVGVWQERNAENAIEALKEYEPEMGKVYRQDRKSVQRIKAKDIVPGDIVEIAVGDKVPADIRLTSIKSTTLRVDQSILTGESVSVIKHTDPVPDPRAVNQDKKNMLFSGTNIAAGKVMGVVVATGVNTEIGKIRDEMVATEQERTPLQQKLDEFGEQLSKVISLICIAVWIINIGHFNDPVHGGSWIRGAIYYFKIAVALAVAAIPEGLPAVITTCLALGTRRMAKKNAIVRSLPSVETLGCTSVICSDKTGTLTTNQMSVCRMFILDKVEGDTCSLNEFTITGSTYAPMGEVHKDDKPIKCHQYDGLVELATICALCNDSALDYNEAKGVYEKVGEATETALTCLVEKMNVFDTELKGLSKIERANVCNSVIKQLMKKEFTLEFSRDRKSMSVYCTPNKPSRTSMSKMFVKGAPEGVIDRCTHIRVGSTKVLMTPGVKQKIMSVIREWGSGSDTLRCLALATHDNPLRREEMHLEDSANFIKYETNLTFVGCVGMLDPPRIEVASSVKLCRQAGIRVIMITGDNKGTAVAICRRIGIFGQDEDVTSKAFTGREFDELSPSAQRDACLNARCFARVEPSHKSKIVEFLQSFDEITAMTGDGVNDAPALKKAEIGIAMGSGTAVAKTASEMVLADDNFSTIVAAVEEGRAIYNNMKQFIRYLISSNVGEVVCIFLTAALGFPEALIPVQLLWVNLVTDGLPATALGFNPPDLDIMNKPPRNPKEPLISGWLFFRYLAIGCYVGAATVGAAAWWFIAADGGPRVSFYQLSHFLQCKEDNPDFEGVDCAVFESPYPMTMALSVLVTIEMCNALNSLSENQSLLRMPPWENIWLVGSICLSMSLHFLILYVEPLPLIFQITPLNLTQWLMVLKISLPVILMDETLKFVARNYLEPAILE
# Method: SERCA2a ATPase Activity in Heart-Derived SR Microsomes from Normal Quinea-Pig
# SERCA2a activity was measured in vitro as ^32P-ATP hydrolysis at different Ca^2+ concentrations (100-4000 nM) in the absence and presence of the tested compounds, as described (Micheletti R. et al., Am J Card 2007, 99:24A-32A). Increasing concentrations of each compound (ranging from 1 to 200 nM) were pre-incubated with 2 μg of SERCA2a enriched microsomes for 5 min at 4° C. in 80 μl of a solution containing 100 mM KCl, 5 mM MgCl2, 1 μM A23187, 20 mM Tris, pH 7.5. […] SERCA2a-dependent activity was identified as the portion of total hydrolytic activity inhibited by 10 μM cyclopiazonic acid (Seidler N W et al., J Biol Chem. 1989, 264:17816-23).
# Dose-response curves were fitted by using a sigmoidal equation and the activity at the maximal velocity (Vmax) and the Kd for Ca^2+ were calculated (Synergy Software KaleidaGraph 3.6). The effect of the compounds in normal guinea-pig preparations was expressed as % decrease of Kd Ca^2+ (implying an increase of affinity for Ca^2+) of a control sample run in the absence of compound (Table 2). […] Data are mean±SD, n=number of experiments, *at least p<0.05.
# [1] = target: dog renal Na^+/K^+ ATPase (Canis lupus familiaris (Dog) (Canis familiaris), UniProt P50997); assay: biochemical; settings: IC50 inhibition of dog renal Na+/K+ ATPase, purified dog kidney enzyme;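 note: enzyme preincubated with inhibitor 10 min at 37 °C, then K^+ and ^32P-ATP added for 15 min, released ^32P counted, activity relative to untreated control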
# From the text: Inhibition of Dog Renal Na^+/K^+ ATPase Activity
# The compounds were thus tested for their inhibitory effect on the canine renal Na^+/K^+ ATPase enzyme.
# Kidneys were excised from 1-3 year-old male beagle dogs (WuXi AppTec, Suzhou Co., Ltd. 1318 Wuzhong Ave., Wuzhong District Suzhou, 215104 P.R. China) under pentobarbital anesthesia (Import Authorization from Italian Health Ministry 0009171-09/04/2015-DGSAF-COD_UO-P, 2015). Kidneys were sliced and the outer medulla was dissected and suspended (1 g/10 ml) in a sucrose-histidine solution containing 250 mM sucrose, 30 mM histidine, and 5 mM EDTA, pH 7.2. The tissue was homogenized by using an Ultra Turrax homogenizer. The sample was centrifuged at 6,000 g for 15 min. Next, the supernatant was decanted and centrifuged at 48,000 g for 30 min. The pellet was suspended in the sucrose-histidine buffer and incubated for 20 min with a sodium-dodecyl-sulphate (SDS) solution dissolved in a gradient buffer containing 25 mM imidazole and 1 mM EDTA, pH 7.5. The sample was layered on the top of a sucrose discontinuous gradient (10, 15, and 29.4%) and centrifuged at 60,000 g for 115 min. The pellet was suspended in the gradient buffer.
# Increasing concentrations of the standard ouabain, or tested compound, were incubated with 0.3 μg of purified dog kidney enzyme for 10 min at 37° C. in 120 μl final volume of a medium containing 140 mM NaCl, 3 mM MgCl2, 50 mM Hepes-Tris, 3 mM ATP, pH 7.5. Then, 10 μl of a solution containing 10 mM KCl and 20 nCi of ^32P-ATP (3-10 Ci/mmol, Perkin Elmer) were added. The reaction was allowed to continue for 15 min at 37° C. and then stopped by acidification with 20% v/v ice-cold perchloric acid. ^32P was separated by centrifugation with activated Charcoal (Norit A, Serva) and the radioactivity was counted. The inhibitory activity was expressed as percent of the control samples carried out in the absence of ouabain, or tested compound.
# [2] = compound 10 nM, read-out: Kd Ca2+ (nM) mean ± SD
# [3] = compound 100 nM, read-out: Kd Ca2+ (nM) mean ± SD
# [4] = compound 200 nM, read-out: Kd Ca2+ (nM) mean ± SD
# [5] = read-out: Kd Ca2+ (nM) mean ± SD, compound 100 nM
# [6] = read-out: Kd Ca2+ (nM) mean ± SD, compound 200 nM
SMILES,% change in Ca2+ Kd vs control (negative = decrease) (SERCA2a; compound 10 nM),Kd (SERCA2a; [2]) [nM],% change in Ca2+ Kd vs control (negative = decrease) (SERCA2a; compound 100 nM),Kd (SERCA2a; [3]) [nM],IC50 [1] [nM],% change in Ca2+ Kd vs control (negative = decrease) (SERCA2a; compound 200 nM),Kd (SERCA2a; [4]) [nM],Kd (SERCA2a; [5]) [nM],Kd (SERCA2a; [6]) [nM],"Kd (SERCA2a; read-out: Kd Ca2+ (nM) mean ± SD, compound 10 nM) [nM]","Kd (SERCA2a; compound 1 nM, read-out: Kd Ca2+ (nM) mean ± SD) [nM]"
"C[C@]12CC/C(=C\CCC(=O)O)CC1[C@@H](O)C[C@@H]1[C@@H]2CC[C@]2(C)C(=O)CC[C@@H]12 (stereo partly drawn) [CVie201, (E)-4-(6alpha-hydroxy-17-oxoandrostane-3-yliden)butyric acid]",−14%*,459 ± 57.1,−15%*,454 ± 53.2,> 100000,,,,,,
"C[C@]12CC/C(=C/CCC(=O)O)CC1[C@@H](O)C[C@@H]1[C@@H]2CC[C@]2(C)C(=O)CC[C@@H]12 (stereo partly drawn) [CVie202, (Z)-4-(6alpha-hydroxy-17-oxoandrostane-3-yliden)butyric acid]",−4%,448 ± 9.4,−7%,436 ± 24.9,> 100000,−6%,437 ± 26.4,,,,
"C[C@]12CC/C(=C\CCC(=O)O)CC1[C@H](O)C[C@@H]1[C@@H]2CC[C@]2(C)C(=O)CC[C@@H]12 (stereo partly drawn) [CVie203, (E)-4-(6beta-hydroxy-17-oxoandrostane-3-yliden)butyric acid]",−8%,418 ± 36.5,−15%*,386 ± 33.3,> 100000,−14%*,393 ± 31.3,,,,
"C[C@]12CC/C(=C/CCC(=O)O)CC1[C@H](O)C[C@@H]1[C@@H]2CC[C@]2(C)C(=O)CC[C@@H]12 (stereo partly drawn) [CVie204, (Z)-4-(6beta-hydroxy-17-oxoandrostane-3-yliden)butyric acid]",,,+13%,493 ± 107,> 100000,−3%,424 ± 82.7,,,,
"C[C@]12CC/C(=C\CC3CNC3)CC1[C@@H](O)C[C@@H]1[C@@H]2CC[C@]2(C)C(=O)CC[C@@H]12 (stereo partly drawn) [CVie205, (E)-3-[2-(azetidin-3-yl)ethyliden]-6alpha-hydroxyandrostane-17-one]",,,−16.7%*,,7000,−13.1%*,,656 ± 56.6,683 ± 46.4,,
"C[C@]12CC/C(=C/CC3CNC3)CC1[C@@H](O)C[C@@H]1[C@@H]2CC[C@]2(C)C(=O)CC[C@@H]12 (stereo partly drawn) [CVie206, (Z)-3-[2-(azetidin-3-yl)ethyliden]-6alpha-hydroxyandrostane-17-one]",,,−13.7%*,,5900,−15.1%*,,678 ± 86.7,667 ± 55.6,,
"C[C@]12CC=C(CCC3CCNCC3)CC1[C@@H](O)C[C@@H]1[C@@H]2CC[C@]2(C)C(=O)CC[C@@H]12 (stereo partly drawn) [CVie208, 3-[2-(piperidin-4-yl)ethyl]-6alpha-hydroxyandrost-2-ene-17-one hydroiodide]",,,−19.1%*,362 ± 72.2,10400,−21.7%,350 ± 109,,,,
"C[C@]12CC[C@H](CCC3CCNCC3)CC1[C@@H](O)C[C@@H]1[C@@H]2CC[C@]2(C)C(=O)CC[C@@H]12 (stereo partly drawn) [CVie212, 3beta-[2-(piperidin-4-yl)ethyl]-6alpha-hydroxyandrostane-17-one]",−19.6%*,,−20.2%*,,3500,,,406 ± 82.9,,409 ± 121,
"CCOC(=O)C[C@H]1CC[C@]2(C)C3CC[C@]4(C)C(=O)CCC4C3C[C@H](O)C2C1 (stereo partly drawn) [CVie213, Ethyl (6alpha-hydroxy-17-ketoandrostane-3beta-yl) acetate]",−12%,432 ± 129,−23%*,378 ± 114,> 100000,−17%*,407 ± 124,,,,
"C[C@]12CC[C@H](CCCC(=O)O)CC1[C@H](O)C[C@@H]1[C@@H]2CC[C@]2(C)C(=O)CC[C@@H]12 (stereo partly drawn) [CVie215, 4-(6beta-hydroxy-17-oxoandrostane-3-yl) butyric acid]",,459 ± 80.3,,437 ± 74.1,> 100000,,,,,,530 ± 47.9
